{"source": "patent US20060084659A1", "about": "“Augmentation of psychotherapy with cannabinoid reuptake inhibitors” (priority 2004, published 2006)", "key": {"[1]": {"conditions": "PD98059 systemic and intra-amygdala infusions; AP5 intra-amygdala infusions; cited from earlier work"}, "[2]": {"conditions": "intra-amygdala infusions; fear-potentiated startle (AP5 also freezing); cited from earlier work"}, "[3]": {"test_system": "Adult male Sprague-Dawley rats", "assay": "Shock-induced reinstatement of fear", "assay_type": "in vivo, rat", "procedure": "Reinstatement: Animals that had been previously fear-conditioned and extinction-trained were returned to the testing chamber 48 hours and sometimes 96 hours following extinction training and presented with 3 footshocks in the absence of the light-CS (0.4 mA, 0.5 sec shock, 2 min inter-trial interval). Immediately following the unpaired shocks, animals were tested for the presence of fear-potentiated startle (15 light-startle compounds).\nShock-induced reinstatement was examined 2 days following treatment with AM404 or vehicle during extinction. Previous studies have shown that the level of fear following reinstatement is dependent both on the level of the stressor and the amount of previous extinction, as long as the stressor is delivered in the same context as the original training context (Rescorla & Heth (1975). J. Exp. Psychol. Anim. Behav. Process. 1(1): 88-96; Bouton & King (1983) J. Exp. Psychol. Anim. Behav. Process. 9: 248-265). As animals were matched for equivalent FPS prior to extinction training, the susceptibility of animals to reinstatement can be taken as a secondary measure of the strength of extinction training, and perhaps as a preliminary measure of the resiliency of these inhibitory extinction memories to stressors. […]"}, "[4]": {"test_system": "Adult male Sprague-Dawley rats", "assay": "Extinction of conditioned fear measured by fear-potentiated startle (FPS) after extinction training", "assay_type": "in vivo, rat", "conditions": "for fear potentiated startle (FPS) after extinction training: 10 mg/kg AM404, 5 mg/kg rimonabant, alone or together, 30 trial extinction, 24 hrs post extinction training; for fear (FPS) vs vehicle: 10 mg/kg i.p., 30-trial extinction; for extinction of fear (summary of Examples 1-10): systemic application in rats, fear-potentiated startle; for conditioned fear following extinction training vs vehicle: p<0.01", "procedure": "Animals: Adult male Sprague-Dawley rats (Charles River, Raleigh, N.C., 350-450 g) were used in the present studies. Animals were housed in pairs in a temperature-controlled animal colony, with ad libitum access to food and water, and maintained on a 12 hr light/dark cycle.\n(§1) Fear conditioning: All training and testing trials were performed in standardized chambers optimized for the measurement of fear-potentiated startle (see Walker et al. (2002) J. Neurosci. 22: 2343-2351). Animals were pre-exposed to the chambers for 10 min on each of 2 days prior to training for habituation purposes and to minimize the effects of contextual conditioning. On 2 consecutive days following habituation, rats were returned to the same chambers and presented with 10 pairings of a light (3.7 sec) co-terminating with a 0.4-mA, 0.5-sec shock (3.6-min inter-trial interval).\n(§2) Matching: Twenty-four hours following the last fear-conditioning session, animals were returned to the same chambers and presented with startle stimuli (50-msec, 95-dB white-noise bursts) in the presence or absence of the light conditioned stimulus (light-CS). Increased startle in the presence of the light-CS was taken as a measure of conditioned fear, and the magnitude of the fear response was calculated as the percentage by which startle increased when the light-CS was presented in compound with the startle stimulus versus when it was omitted (fear-potentiated startle or FPS). Using these measurements, animals were divided into groups displaying approximately equal levels of FPS prior to drug treatment and extinction training.\nExtinction training: Five days following the last fear conditioning trial, animals were injected intraperitoneally with a test compound or its vehicle in 1 mL/kg volumes and then immediately returned to the same chambers and presented with 15, 30 or 90 presentations of the light-CS in the absence of footshock (3.7-sec light, 30-sec inter-trial interval). One hour following extinction training, a subset of animals was given a short test consisting of startle stimuli in the presence or absence of the light-CS (2-5 light-startle compounds, values shown are averages of all trials). Twenty-four hrs post-extinction training, all animals were tested for the presence of fear-potentiated startle (15 light-startle compounds).\nStatistics: Comparisons were made across drug-treatment groups at each test (e.g. 24-hr groups were compared across treatment groups) using ANOVA or Student's t-test with drug or dose as the independent measure, and using Fischer's LSD test for post-hoc analysis."}, "[5]": {"test_system": "Adult male Sprague-Dawley rats", "assay": "Shock reactivity, baseline startle and activity measures", "assay_type": "in vivo, rat", "conditions": "10 mg/kg", "procedure": "Shock Reactivity, Startle, and Activity Measures: Animals that had been previously fear-conditioned were injected with AM404, placed in the training/testing chambers, and presented with 3 unpaired shocks and 42 startle stimuli (0.4-mA, 0.5-sec shocks, 95-dB noise-burst startle). The same group of animals was returned to the same chambers 3 d later, injected with vehicle, and presented with an identical behavioral test. The values shown are the mean integrated voltages of the accelerometers measured over 200-msec periods beginning at the onset of either the shocks or the startle stimuli. Additionally, a measure of spontaneous motor activity was derived from the mean displacement of the accelerometers in the 2 min prior to delivery of the first shock, while animals were exploring the chambers.\nThis experiment examined behavioral effects engendered by AM404 treatment. These included the effect of 10 mg/kg AM404 on: 1) shock-reactivity as a measure of pain sensitivity; 2) baseline startle as one measure of anxiety; and 3) general motor activity within the training chambers. Animals were fear-conditioned and then returned to the training chamber several days later and administered 10 mg/kg AM404. Following drug administration, animals were presented with 3 shocks and 42 startle stimuli identical to those used in the above studies. Subsequently, the same animals were returned to the testing chamber 3 days later, injected with vehicle, and similarly tested."}, "[6]": {"test_system": "Adult male Sprague-Dawley rats", "assay": "FPS in fear-conditioned animals without cue re-exposure", "assay_type": "in vivo, rat", "conditions": "10 mg/kg AM404 or 5 mg/kg rimonabant; tested 1 hr following drug administration", "procedure": "as §1\nas §2, with “training. […]” for “training.”"}, "[7]": {"conditions": "cited from earlier work"}, "[8]": {"conditions": "doses greater than 5 mg/kg; Herzberg et al. 1997; cited from earlier work"}}}
{"smiles": "NC(CCCP(=O)(O)O)C(=O)O", "note": "(stereo not shown) [AP5]", "values": [{"measurement": "fear conditioning", "setting": "[1]", "value": "block fear conditioning"}, {"measurement": "extinction", "setting": "[2]", "value": "block extinction"}]}
{"smiles": "CCCCC/C=C\\C/C=C\\C/C=C\\C/C=C\\CCCC(=O)Nc1ccc(O)cc1", "note": "[AM404, N-(4-hydroxyphenyl)arachidonamide]", "values": [{"measurement": "reinstatement-induced conditioned fear", "setting": "[3]; 2 mg/kg and 10 mg/kg groups pooled, drug given prior to extinction training, 48 hrs prior to reinstatement with 3 footshocks, p<0.05", "value": "less reinstatement-induced conditioned fear"}, {"measurement": "within-session extinction (change in FPS) after reinstatement", "setting": "[3]; first 4 trials of testing following reinstatement, Trial X Drug p<0.02", "value": "little change"}, {"measurement": "fear potentiated startle (FPS) after extinction training", "setting": "[4]", "value": "significant extinction"}, {"measurement": "fear (FPS) vs vehicle", "setting": "[4]; 1 hr post extinction, p<0.05", "value": "significantly less fear than vehicle-treated controls"}, {"measurement": "fear (FPS) vs vehicle", "setting": "[4]; 24 hrs post-extinction, post-hoc p<0.05", "value": "significantly less than vehicle-treated animals"}, {"measurement": "extinction retention (fear in the presence of the CS)", "setting": "[4]; prior to 30-trial extinction training, 24 hrs following extinction training, main effect of drug p<0.05", "value": "enhancement of extinction retention"}, {"measurement": "extinction of fear (summary of Examples 1-10)", "setting": "[4]", "value": "dose-dependently enhances extinction of fear"}, {"measurement": "shock reactivity (pain sensitivity)", "setting": "[5]; 3 footshocks, p>0.5", "value": "little effect"}, {"measurement": "baseline startle (anxiety)", "setting": "[5]; p=0.45", "value": "non-significant trend toward decreased baseline startle"}, {"measurement": "overall locomotor activity levels in the testing chamber", "setting": "[5]; p>0.5", "value": "little effect"}, {"measurement": "FPS when cue re-exposure omitted", "setting": "[6]", "value": "no effect on FPS"}]}
{"smiles": "N[C@@H]1CONC1=O", "note": "[DCS, D-cycloserine]", "values": [{"measurement": "half-life", "setting": "[7]; in vivo", "value": 10, "unit": "h"}, {"measurement": "route of excretion", "setting": "[7]; in vivo", "value": "primarily renally excreted"}, {"measurement": "time of peak blood levels after dosing", "setting": "[7]; in vivo", "value": "3 to 8", "unit": "h"}, {"measurement": "side effects", "setting": "[7]; infrequent, subjects on chronic dosing schedules, generally chronically ill with tuberculosis", "value": "drowsiness, headache, confusion, tremor, vertigo, and memory difficulties, paresthesias, and seizure"}]}
{"smiles": "NC(=O)c1cccc(-c2cccc(OC(=O)NC3CCCCC3)c2)c1", "note": "[URB597, cyclohexylcarbamic acid 3′-carbamoylbiphenyl-3-yl ester]", "values": [{"measurement": "reduction in fear within the testing session", "setting": "[4]; 15-trial extinction, relative to animals receiving no drug", "value": "greater reductions in fear within the testing session"}, {"measurement": "average decrease in FPS relative to pre-extinction levels", "setting": "[4]; 15-trial extinction, testing sessions 48 and 96 hours after extinction training", "value": "approximately 30%"}, {"measurement": "extinction retention (fear in the presence of the CS)", "setting": "[4]; prior to 15-trial extinction training, 48 hrs following extinction training", "value": "enhancement of extinction retention"}, {"measurement": "extinction of fear (summary of Examples 1-10)", "setting": "[4]", "value": "dose-dependently enhances extinction of fear"}]}
{"smiles": "COc1cccc(-c2cc(=O)c3ccccc3o2)c1N", "note": "[PD98059]", "values": [{"measurement": "fear conditioning", "setting": "[1]", "value": "disrupt fear-conditioning"}, {"measurement": "extinction", "setting": "[2]", "value": "disrupt extinction"}]}
{"smiles": "Cc1c(C(=O)c2cccc3ccccc23)c2cccc3c2n1[C@H](CN1CCOCC1)CO3", "note": "[WIN 55-212,2]", "values": [{"measurement": "extinction retention (reduction in fear)", "setting": "[4]; 5 mg/kg single dose prior to 30-trial extinction training", "value": "did not augment the non-significant reduction in fear"}, {"measurement": "locomotor and analgesic effects", "setting": "[8]", "value": "prominent locomotor and analgesic effects"}]}
{"smiles": "Cc1c(C(=O)NN2CCCCC2)nn(-c2ccc(Cl)cc2Cl)c1-c1ccc(Cl)cc1", "note": "[rimonabant]", "values": [{"measurement": "conditioned fear following extinction training vs vehicle", "setting": "[4]; 1.5 mg/kg i.p., 90-trial extinction, 24 hrs post-extinction", "value": "significantly higher levels of conditioned fear than vehicle-treated controls"}, {"measurement": "conditioned fear following extinction training vs vehicle", "setting": "[4]; 5 mg/kg i.p., 90-trial extinction, 24 hrs post-extinction", "value": "significantly higher levels of conditioned fear than vehicle-treated controls"}, {"measurement": "fear potentiated startle (FPS) after extinction training", "setting": "[4]", "value": "no decrease in fear potentiated startle"}, {"measurement": "extinction retention (fear in the presence of the light-CS)", "setting": "[4]; 90-trial extinction, acute administration immediately prior to extinction training, tested 24 hrs following extinction training", "value": "profound disruption of extinction retention"}, {"measurement": "extinction of fear (summary of Examples 1-10)", "setting": "[4]", "value": "dose-dependently blocks extinction of fear"}, {"measurement": "FPS when cue re-exposure omitted", "setting": "[6]", "value": "no effect on FPS"}]}
